ChEMBL document CHEMBL3885881, “DrugMatrix”
Starred links: 1 amine or outer side, 2 acyl side, 3 side chain; linkers in the order of their positions; H or OH if unused. Positions of bridges follow the written chain, without caps; N, C: chain ends. Non-standard residues stand in square brackets, D forms with d. Residues, ends and D or L forms follow the SMILES beside them. Chains are numbered I, II in the order given. Actinocin(9to1) = Cc1c2oc3c(C)ccc(C(=O)[*:1])c3nc-2c(C(=O)[*:2])c(N)c1=O; NMeV = CN[C@H](C(=O)O)C(C)C; Sar = CNCC(=O)O

Species on record: Rattus norvegicus
Experiment: DrugMatrix - Regimen: Daily Repeat
Type: toxicity, organism-based, Sprague-Dawley
Set-up: regimen Daily Repeat, gender Male, age 6-8 weeks
Details: in vivo, iv, vehicle 100 % SALINE; for ABSOLUTE BASOPHIL / ABSOLUTE EOSINOPHIL / ABSOLUTE LYMPHOCYTE / ABSOLUTE MONOCYTE / ABSOLUTE SEGMENTED NEUTROPHIL / BASOPHIL / EOSINOPHIL / ERYTHROCYTE COUNT / HEMATOCRIT / HEMOGLOBIN / LEUKOCYTE COUNT / LYMPHOCYTE / MEAN CORPUSCULAR HEMOGLOBIN / MEAN CORPUSCULAR HEMOGLOBIN CONCENTRATION / MEAN CORPUSCULAR VOLUME / MONOCYTE / NEUTROPHIL / NUCLEATED RED BLOOD CELLS / PLATELET COUNT: tissue Blood; for ALANINE AMINOTRANSFERASE / ALBUMIN / ALKALINE PHOSPHATASE / ASPARTATE AMINOTRANSFERASE / BLOOD UREA NITROGEN / CARBON DIOXIDE / CHLORIDE / CHOLESTEROL / CREATINE PHOSPHOKINASE / CREATININE / GLUCOSE / LACTATE DEHYDROGENASE / LIPASE / PHOSPHORUS / POTASSIUM / SODIUM / TOTAL BILIRUBIN / TOTAL PROTEIN / URIC ACID: tissue Plasma
[1] = 0.006 mg/kg, 120 h, dose level Low, time 5 day
[2] = 0.06 mg/kg, 72 h, dose level High, time 3 day
[3] = 0.06 mg/kg, 120 h, dose level High, time 5 day

Cc1c2oc3c(C)ccc(C(=O)N[C@@H]4C(=O)N[C@H](C(C)C)C(=O)N5CCC[C@H]5C(=O)N(C)CC(=O)N(C)[C@@H](C(C)C)C(=O)O[C@@H]4C)c3nc-2c(C(=O)N[C@@H]2C(=O)N[C@H](C(C)C)C(=O)N3CCC[C@H]3C(=O)N(C)CC(=O)N(C)[C@@H](C(C)C)C(=O)O[C@@H]2C)c(N)c1=O [DACTINOMYCIN] (I: T[dV]P[Sar][NMeV] / II: T[dV]P[Sar][NMeV]; ester I:1-I:C, II:1-II:C; linker I:N-II:N via Actinocin(9to1))
ABSOLUTE BASOPHIL [1]: 0 CELLS/uL
ABSOLUTE EOSINOPHIL [1]: 221.33 CELLS/uL
ABSOLUTE LYMPHOCYTE [1]: 12705.67 CELLS/uL
ABSOLUTE MONOCYTE [1]: 103.33 CELLS/uL
ABSOLUTE SEGMENTED NEUTROPHIL [1]: 1369.67 CELLS/uL
BASOPHIL [1]: 0%
EOSINOPHIL [1]: 1.33%
ERYTHROCYTE COUNT [1]: 5.39 x10E6/uL
HEMATOCRIT [1]: 33.7%
HEMOGLOBIN [1]: 13.67 G/DL
LEUKOCYTE COUNT [1]: 14.4 x10E3/uL
LYMPHOCYTE [1]: 88.67%
MEAN CORPUSCULAR HEMOGLOBIN [1]: 25.37 pg
MEAN CORPUSCULAR HEMOGLOBIN CONCENTRATION [1]: 40.57 G/DL
MEAN CORPUSCULAR VOLUME [1]: 62.57 fL
MONOCYTE [1]: 0.67%
NEUTROPHIL [1]: 9.33%
NUCLEATED RED BLOOD CELLS [1]: 0 /100WBC
PLATELET COUNT [1]: 1209 x10E3/uL
ALANINE AMINOTRANSFERASE [1]: 51 u/L
ALBUMIN [1]: 4.1 G/DL
ALKALINE PHOSPHATASE [1]: 297 u/L
ASPARTATE AMINOTRANSFERASE [1]: 130.67 u/L
BLOOD UREA NITROGEN [1]: 15 mg/dL
CARBON DIOXIDE [1]: 27.33 mmol/L
CHLORIDE [1]: 102 MEQ/L
CHOLESTEROL [1]: 77 mg/dL
CREATINE PHOSPHOKINASE [1]: 1455.33 u/L
CREATININE [1]: 0.22 mg/dL
GLUCOSE [1]: 155.33 mg/dL
LACTATE DEHYDROGENASE [1]: 798.33 u/L
LIPASE [1]: 10.33 u/L
PHOSPHORUS [1]: 11.03 mg/dL
POTASSIUM [1]: 5.31 MEQ/L
SODIUM [1]: 143.1 MEQ/L
TOTAL BILIRUBIN [1]: 0.17 mg/dL
TOTAL PROTEIN [1]: 6.13 G/DL
URIC ACID [1]: 1.37 mg/dL
ABSOLUTE BASOPHIL [2]: 0 CELLS/uL
ABSOLUTE EOSINOPHIL [2]: 0 CELLS/uL
ABSOLUTE LYMPHOCYTE [2]: 13952.33 CELLS/uL
ABSOLUTE MONOCYTE [2]: 166 CELLS/uL
ABSOLUTE SEGMENTED NEUTROPHIL [2]: 748.33 CELLS/uL
BASOPHIL [2]: 0%
EOSINOPHIL [2]: 0%
ERYTHROCYTE COUNT [2]: 5.81 x10E6/uL
HEMATOCRIT [2]: 35.17%
HEMOGLOBIN [2]: 13.97 G/DL
LEUKOCYTE COUNT [2]: 14.87 x10E3/uL
LYMPHOCYTE [2]: 93.67%
MEAN CORPUSCULAR HEMOGLOBIN [2]: 24.13 pg
MEAN CORPUSCULAR HEMOGLOBIN CONCENTRATION [2]: 39.8 G/DL
MEAN CORPUSCULAR VOLUME [2]: 60.7 fL
MONOCYTE [2]: 1%
NEUTROPHIL [2]: 5.33%
NUCLEATED RED BLOOD CELLS [2]: 0 /100WBC
PLATELET COUNT [2]: 1121.67 x10E3/uL
ALANINE AMINOTRANSFERASE [2]: 41.67 u/L
ALBUMIN [2]: 4.4 G/DL
ALKALINE PHOSPHATASE [2]: 262.67 u/L
ASPARTATE AMINOTRANSFERASE [2]: 85.33 u/L
BLOOD UREA NITROGEN [2]: 15.67 mg/dL
CARBON DIOXIDE [2]: 26 mmol/L
CHLORIDE [2]: 99.67 MEQ/L
CHOLESTEROL [2]: 81.33 mg/dL
CREATINE PHOSPHOKINASE [2]: 562.67 u/L
CREATININE [2]: 0.16 mg/dL
GLUCOSE [2]: 154.33 mg/dL
LACTATE DEHYDROGENASE [2]: 357.33 u/L
LIPASE [2]: 10.33 u/L
PHOSPHORUS [2]: 11.93 mg/dL
POTASSIUM [2]: 6.38 MEQ/L
SODIUM [2]: 140.17 MEQ/L
TOTAL BILIRUBIN [2]: 0.2 mg/dL
TOTAL PROTEIN [2]: 6.13 G/DL
URIC ACID [2]: 1.6 mg/dL
ABSOLUTE BASOPHIL [3]: 0 CELLS/uL
ABSOLUTE EOSINOPHIL [3]: 0 CELLS/uL
ABSOLUTE LYMPHOCYTE [3]: 13429.67 CELLS/uL
ABSOLUTE MONOCYTE [3]: 267.67 CELLS/uL
ABSOLUTE SEGMENTED NEUTROPHIL [3]: 1069.33 CELLS/uL
BASOPHIL [3]: 0%
EOSINOPHIL [3]: 0%
ERYTHROCYTE COUNT [3]: 5.63 x10E6/uL
HEMATOCRIT [3]: 35%
HEMOGLOBIN [3]: 13.77 G/DL
LEUKOCYTE COUNT [3]: 14.77 x10E3/uL
LYMPHOCYTE [3]: 90.67%
MEAN CORPUSCULAR HEMOGLOBIN [3]: 24.5 pg
MEAN CORPUSCULAR HEMOGLOBIN CONCENTRATION [3]: 39.37 G/DL
MEAN CORPUSCULAR VOLUME [3]: 62.17 fL
MONOCYTE [3]: 1.67%
NEUTROPHIL [3]: 7.67%
NUCLEATED RED BLOOD CELLS [3]: 0 /100WBC
PLATELET COUNT [3]: 1163.67 x10E3/uL
ALANINE AMINOTRANSFERASE [3]: 41 u/L
ALBUMIN [3]: 4.2 G/DL
ALKALINE PHOSPHATASE [3]: 279.33 u/L
ASPARTATE AMINOTRANSFERASE [3]: 79.33 u/L
BLOOD UREA NITROGEN [3]: 19.33 mg/dL
CARBON DIOXIDE [3]: 29 mmol/L
CHLORIDE [3]: 99.67 MEQ/L
CHOLESTEROL [3]: 62.33 mg/dL
CREATINE PHOSPHOKINASE [3]: 327.33 u/L
CREATININE [3]: 0.23 mg/dL
GLUCOSE [3]: 148.67 mg/dL
LACTATE DEHYDROGENASE [3]: 429.67 u/L
LIPASE [3]: 10 u/L
PHOSPHORUS [3]: 12.3 mg/dL
POTASSIUM [3]: 6.67 MEQ/L
SODIUM [3]: 140.87 MEQ/L
TOTAL BILIRUBIN [3]: 0.23 mg/dL
TOTAL PROTEIN [3]: 6.2 G/DL
URIC ACID [3]: 1.7 mg/dL
